Assay results from PubChem BioAssay (NCI).
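Results reflect a 48-hour exposure of cells in 96-well plates to compound at five concentrations. At the GI50, growth is halved. At the TGI there is no net growth.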

Tests used:
Experiment in all cases: NCI-60 cell line screen, 48 h
ACHN renal = test system: ACHN renal
HCT-116 colon = test system: HCT-116 colon
IGROV1 ovarian = test system: IGROV1 ovarian
MDA-MB-231 breast = test system: MDA-MB-231 breast
NCI-H23 lung = test system: NCI-H23 lung
NCI-H522 lung = test system: NCI-H522 lung
OVCAR-3 ovarian = test system: OVCAR-3 ovarian
SF-295 CNS = test system: SF-295 CNS
SK-MEL-2 melanoma = test system: SK-MEL-2 melanoma
SR leukemia = test system: SR leukemia

| SMILES | GI50 (ACHN renal) [µM] | TGI (ACHN renal) [µM] | GI50 (HCT-116 colon) [µM] | TGI (HCT-116 colon) [µM] | GI50 (IGROV1 ovarian) [µM] | TGI (IGROV1 ovarian) [µM] | GI50 (MDA-MB-231 breast) [µM] | TGI (MDA-MB-231 breast) [µM] | GI50 (NCI-H23 lung) [µM] | TGI (NCI-H23 lung) [µM] | GI50 (NCI-H522 lung) [µM] | TGI (NCI-H522 lung) [µM] | GI50 (OVCAR-3 ovarian) [µM] | TGI (OVCAR-3 ovarian) [µM] | GI50 (SF-295 CNS) [µM] | TGI (SF-295 CNS) [µM] | GI50 (SK-MEL-2 melanoma) [µM] | GI50 (SR leukemia) [µM] | TGI (SR leukemia) [µM] | TGI (SK-MEL-2 melanoma) [µM] |
| --- | --- | --- | --- | --- | --- | --- | --- | --- | --- | --- | --- | --- | --- | --- | --- | --- | --- | --- | --- | --- |
| NC(CSC(c1ccccc1)(c1ccccc1)c1ccc(F)cc1)C(=O)O (stereo unspecified) | 5.04 | > 100 | 0.381 | > 34.6 | 0.856 | > 100 | 0.326 | 5.5 | 0.657 | > 28.3 | 0.3 | 0.704 | 0.355 | 4.38 | 0.346 | 13 | 1.95 | 0.253 | 2.93 |  |
| COc1ccc(-c2nsc3c2NC(=O)CC3c2cccc(Cl)c2)cc1 (stereo unspecified) | 7.5 | > 100 | 0.83 | > 100 | 3.33 | > 100 | 2.37 | > 100 | 4.62 | > 100 | 0.766 | 5.99 | 1.74 | > 29 | 1.99 | 13.5 | 0.878 | 0.519 | > 100 | 9.93 |
| COc1ccc(-c2nn3ncccc3c2-c2ccnc(Nc3ccc4c(c3)OCCO4)n2)cc1 | 2.86 | > 25 | 8.16 | > 25 | 2.17 | > 19.6 | 6.55 | > 25 | 9.22 | > 25 | 5.56 | 23 | 9.86 | > 25 | > 17.2 | > 25 | 7.39 | 16.1 | > 25 | > 21 |
| Cc1nc(Sc2nc3ccc([N+](=O)[O-])cc3s2)sc1C | 1.61 | 3.81 | 1.06 | 2.49 | 3 | 14.8 | 1.84 | 11 | 1.03 | 4.44 | 0.627 | 2.36 | 1.35 | 3.28 | 13.8 | 26.7 | 1.6 | 0.367 | 5.94 | 4.53 |
| CCOC(=O)C#Cc1c(C(=O)OCC)nnn1[C@@H]1O[C@H](CO)[C@H]2OC3(CCCCC3)O[C@H]21 | 1.8 | 3.41 | 1.92 | 3.48 | 15.5 | 36.7 | 2.97 | 8.79 | 10.1 | 28.4 | 1.96 | 4.09 | 1.7 | 3.21 | 20.9 | 45.3 | 17.7 | 1.63 | 4.64 | 34 |
| CCn1c(=N)sc2nc3ccccc3n2c1=O |  | > 100 |  | > 100 |  | > 100 |  | > 100 |  | > 100 |  | > 100 |  | > 100 |  | > 100 |  |  | > 100 | > 100 |
| CC(=O)O[C@H](C[C@H](C(C)C)N(C)C(=O)[C@@H](NC(=O)[C@H]1CCCCN1C)C(C)C)c1cccc(C(=O)N[C@@H](Cc2ccccc2)C[C@H](C)C(=O)O)n1 | 0.0955 | > 25 | 0.0222 | > 8.59 | 0.0287 | > 25 | 0.0332 | 10.1 | 0.051 | > 25 | 0.0116 | 0.401 | 0.00707 |  | 0.0333 | > 5.29 | 0.0159 | 0.00429 | > 25 | > 25 |
| COc1cccc(NC(=O)c2sc3nc4c(cc3c2N)C(O)CCC4)c1 (stereo unspecified) | 0.956 | > 100 | 0.117 | > 100 | 0.383 | > 100 | 0.448 | > 100 | 0.442 | > 100 | 0.105 | 2.57 | 0.106 | 0.515 | 0.157 | > 92.2 | 0.249 | 0.0432 | > 100 | > 100 |
| Nc1ccc(-c2ccc3ncc4ccc(=O)n(-c5cccc(C(F)(F)F)c5)c4c3c2)cn1 | < 0.01 |  | 0.0135 | 1.41 | < 0.01 | 0.314 | < 0.0141 | 2.21 | < 0.013 | 2.35 | < 0.01 | 2.03 | < 0.01 | 3.32 | < 0.01 | 1.19 | < 0.01 | < 0.01 | 0.56 | 0.0572 |
| CC1=C(C#N)C(/C=C(\Cl)c2ccc(F)cc2)C(C#N)=C(C)N1 | > 100 | > 100 | > 100 | > 100 | > 100 | > 100 | 94.9 | > 100 | > 100 | > 100 | > 100 | > 100 | > 100 | > 100 | 53.7 | > 100 | > 100 | > 100 | > 100 | > 100 |
| CC(C)=C1CCC(CN2CCOCC2)C1=O (stereo unspecified) |  | 23 |  | 15.8 |  | 39.2 |  | 31.5 |  | 36.7 |  | 0.163 |  | 18.4 |  | > 100 |  |  | 11.2 | 36.6 |
| COc1ccc(-c2n[nH]nc2-c2cc(OC)c3c(c2)OCO3)cc1 | 0.0648 | > 100 | 0.017 |  | 0.0289 | > 100 | 0.0409 | 0.437 | 0.0314 | 29.6 | < 0.01 |  | 0.0101 |  | < 0.01 | 0.429 | 0.0184 | < 0.01 | 17.5 | 20.3 |
| CC[C@@H](O)C[C@H]1CCC[C@@]2(C[C@@H]3OC(=O)/C=C/[C@@](C)(O)[C@@H](O)[C@H](C)[C@@H](O)[C@H](OC4CCC(N(C)C)C(C)O4)[C@@H](O)[C@](C)(O)CCCCC/C=C/[C@@H]4CC(C)(C)O[C@@]4(O)C[C@H](O2)[C@H]3C)O1 (stereo partly specified) |  | 17.6 |  | 26.2 |  | 21.8 |  | 34.1 |  | 18.2 |  | 12.3 |  | 25.5 |  | 21.6 |  |  | 9.42 | 22.7 |
| CCN(CC)c1ccc(/C=N/NC(=O)CSc2nc3ccccc3c(=O)n2Cc2ccc(S(N)(=O)=O)cc2)c(O)c1 | 1.58 | > 100 | 0.363 | > 100 | 0.785 | > 100 | 0.643 | > 100 | 1.96 | > 100 | 2.4 | > 100 | 0.287 | > 100 | 1.47 | > 100 | 2.41 | 0.212 | > 100 | > 100 |
| C=C1C(=O)O[C@H]2[C@H]1CC/C(COC(=O)NCCc1cccc(OC)c1)=C\CC[C@@]1(C)O[C@@H]21 | 1.12 | 2.58 | 0.714 | 2.08 | 1.26 | 3.05 | 1.56 | 3.47 | 1.86 | 4.33 | 1.02 | 2.69 | 0.995 | 2.38 | 7.26 | 20.4 | 1.73 | 0.511 | 2.86 | 3.65 |
| Cc1ccc(O)c(NC2=C(Cl)C(=O)N(Cc3ccccc3)C2=O)c1 | 32.4 | > 100 | 31.2 | > 100 | 6.44 | 24.2 | 12.6 | 32.3 | 25.8 | 68.6 | 13.1 | 29.9 | 14.9 | 32.9 | 26.2 | 71.2 | 19 | 18.3 | 84.9 | 39 |
| COc1ccc2c(c1)O/C(=C\c1cccc(OCC(=O)Nc3nc(C)c(C)s3)c1)C2=O | 2.28 | 7 | 5.53 | > 53.3 | 0.152 | 0.316 | 0.95 |  | 1.19 |  | 1.26 | 2.95 | 0.448 | 1.05 | 28.9 | > 100 | 1.68 | 0.537 | 1.37 | 3.22 |
| COc1ccc2nc3cccc([N+](=O)[O-])c3c(NCCNCCN(C)C)c2c1 | 0.0414 | 0.439 | 0.25 | 12 | 0.0195 | 0.136 | 0.658 | 4.17 | 1.72 | 5.26 | 0.0102 | 0.0184 | 0.0992 | 0.308 | 0.0626 | 0.696 | 0.0308 | 0.0329 |  | 0.107 |
| CCc1nn2ncccc2c1-c1ccnc(NC2CC2)n1 | > 25 | > 25 | > 25 | > 25 | > 25 | > 25 | > 25 | > 25 | > 25 | > 25 | > 25 | > 25 | > 25 | > 25 | > 25 | > 25 | > 25 | > 25 | > 25 | > 25 |
| Cc1cn2c(/C=N/N=C(N)N)c(-c3ccncc3)nc2s1 | 18.5 | 32.5 | 10.7 | 22.5 | 22.1 | 49.2 | 52.6 | > 100 | 16.6 | 30.2 | 17.7 | 59.7 | 17.5 | 33.6 | 14.3 | 29.2 | 28.3 | 5.3 | 17.5 | > 100 |
